Paper PMC7801115, “Preclinical in vitro screening of newly synthesised amidino substituted benzimidazoles and benzothiazoles” (Journal of Enzyme Inhibition and Medicinal Chemistry, 2021)

Key:
A549 = experiment: BrdU proliferation assay, 3D cell culture; format: cell-based; details: Homo sapiens, A549, 3D cell culture, ±SD, N = 2
Experimental: (§1) Cells were grown in 96 well Perfecta 3 D hanging drop plates 5000 cell/well for 4 days until spheres were formed (and checked under the microscope). After sphere formation cells were treated with compounds followed by 72 h incubation. Cell viability assay was performed according to the manufacturer’s instruction, using CellTiter GLO 3 D for 3 D cell culture (Promega); cell incubation was 5 min on the shaker followed by 25 min incubation in the dark. Plates were read using PE EnVision luminescence. The results for each of tested compounds are reported as growth percentages from two independent concentrations curves compared with the untreated control cells after drug exposure.
(§2) Proliferation assay was performed using Cell Proliferation ELISA, BrdU (Sigma, St. Louis, MO, USA). Briefly, 48 h hours after compound addition, 10 µM of BrdU was added to each well and incubated for following 24 h. After incubation, single cell suspension was made for 3 D cell culture in the new 96 well plate. Plates were centrifuged and supernatants were removed from each plate (for 2 D and 3 D cell culture) followed by 60 min incubation at 60° C. The rest of the proliferation assay was performed according to the manufacturer instructions.
(§3) Calculation of IC50 data, curves and QC analysis is made by using Excel tools and GraphPadPrism software (La Jolla, CA), v. 5.03. In brief, individual concentration–effect curves are generated by plotting the logarithm of the tested concentration of tested compounds (X) versus corresponding percent inhibition values (Y) using least squares (ordinary) fit. […] QC criteria parameters (Z', S:B, R2, HillSlope) were checked for every IC50 curve.

NCI-H358 = experiment: BrdU proliferation assay, 3D cell culture; format: cell-based; details: Homo sapiens, NCI-H358, 3D cell culture, ±SD, N = 2
Experimental: as §1, §2, §3

[1] = Metabolic stability in liver microsomes; format: in vitro ADME; details: 60 min
Experimental: Tested compounds (final concentration of 1 µM, 0.1% DMSO), as well as testosterone and propranolol as positive controls and caffeine as negative control were incubated in phosphate buffer (50 mM, pH 7.4) for 60 min at 37 °C with liver microsomes (human and mouse) in the absence and presence of the NADPH cofactor. The NADPH generating system was prepared in phosphate buffer and consisted of nicotinamide adenine dinucleotide phosphate (NADP, 0.38 mM), glucose-6-phosphate (1.49 mM), glucose-6-phosphate dehydrogenase (1.5 U) and magnesium chloride (0.1 mM). Aliquots were taken at different time points (0, 10, 20, 30, 45 and 60 min) and reaction was terminated by addition of a MeCN/MeOH (2:1) mixture, containing diclofenac as internal standard. Samples were then centrifuged (at 4500 rpm, at 4 °C, for 30 min) and resulting supernatants were subjected to LC-MS/MS analysis. The in vitro half life (t½) was determined from the slope of the linear regression of ln % parent compound remaining versus incubation time. In vitro intrinsic clearance, expressed as µl/min/mg liver, was determined from in vitro half life (t½) and normalised for the protein concentration in the incubation mixture. Predicted in vivo hepatic clearance was determined from in vitro intrinsic clearance assuming 52.5 mg of protein/g of liver and using constant values for liver weight/body weight [g/kg] (25.7 for human, 87.5 for mouse) and liver blood flow (LBF) [ml/min/kg] (21 for human and 131 for mouse).
(§4) All ADME samples were analysed on a Sciex API 4000 or Sciex API4500 Triple Quadrupole Mass Spectrometer (Sciex, Framingham, MA, USA) coupled to a UHPLC System (Shimadzu Nexera X2; Shimadzu, Kyoto, Japan). Samples were injected onto an UPLC column (HALO2 C18, 2.1 × 20 mm, 2 µm or Phenomenex Luna Omega Polar C18, 30 × 2.1 mm, 1.6 µm) and eluted with a gradient at temperature of 50 °C. The mobile phase was composed of acetonitrile (with 0.1% formic acid) and 0.1% formic acid in deionised water. A total run time was 1 or 1.5 min, with the flow rate of 0.7 ml/min (under gradient conditions). A positive ion mode with turbo spray, an ion source temperature of 500 °C and a dwell time of 150 ms were utilised for mass spectrometric detection. Multiple reaction monitoring (MRM) was used at the specific transitions for each compound/control tested: compound 5c: 361.9 → 304.9; compound 5d: 344.8 → 287.9; compound 5e: 349.8 → 292.9; compound 5 g: 350.8 → 293.9; compound 5 h: 344.0 → 286.9; compound 6a: 276.9 → 220.0; compound 5 b: 319.0 → 262.0; compound 6 b: 302.1 → 245.1; compound 6c: 344.9 → 288.0; compound 6d: 333.0 → 276.0; compound 6e: 316.1 → 259.0; compound 6f: 327.1 → 270.0; compound 6 g: 377.1 → 320.1; testosterone: 289.3→ 97.1; propranolol: 260.1 → 182.8; caffeine: 195.2 → 138.1; acebutolol: 337.2 → 116.2, nicardipine: 480.2 → 315.0; verapamil: 455.4 → 165.1; amprenavir: 506.2 → 245.4; diclofenac: 296.1 → 213.7 or 296.2 → 215.3; eucatropine: 292.2 → 109.1; benfluorex: 352.1 → 230.3, and warfarin: 309.2 → 163.2

Stability in plasma = format: in vitro ADME; details: 37 °C
Experimental: Tested compounds (final concentration of 5 µM, 0.5% DMSO) were incubated for 4 h at 37 °C in human and mouse plasma, respectively. Aliquots were taken at different time points (0, 30, 120 and 240 min) and reaction was terminated by addition of a MeCN/MeOH (2:1) mixture, containing internal standard (diclofenac). Samples were then centrifuged (at 4500 rpm, at 4 °C, for 30 min) and resulting supernatants were subjected to LC-MS/MS analysis. The same procedure was followed for controls used in the assay: propranolol (both species), benfluorex (mouse) and eucatropine (human), respectively.
as §4

| SMILES | IC50 (A549) | IC50 (NCI-H358) | Microsomes (1 µM) Predicted in vivo hep CL, Human [1] | Microsomes (1 µM) Predicted in vivo hep CL, Mouse [1] | remaining at 4 h, 5 µM (Stability in plasma; human plasma) | remaining at 4 h, 5 µM (Stability in plasma; mouse plasma) |
| --- | --- | --- | --- | --- | --- | --- |
| Cl.N#Cc1ccc(-c2nc3ccc(C4=NCCCN4)cc3s2)cc1 [Compound 5b, 2–(4-Cyanophenyl)-6–(3,4,5,6-tetrahydropyrimidin-1-ium-2-yl)benzothiazole chloride] | 87 ± 0.11 µM | > 100 µM | <30 %LBF | <30 %LBF | 86% | 95% |
| Cl.c1ccc2cc(-c3nc4ccc(C5=NCCCN5)cc4s3)ccc2c1 [Compound 5h, 2-(Naphthalene-2-yl)-6–(3,4,5,6-tetrahydropyrimidin-1-ium-2-yl)benzothiazole chloride] | 14 ± 0.06 µM | 1 ± 0.81 µM | <30 %LBF | <30 %LBF | 74% | 85% |
| c1ccc2c(c1)cc(-c1nc3cc(C4=NCCCN4)ccc3[nH]1)c1ccccc12 [Compound 6g, 2-(Phenanthrene-9-yl)-5(6)–(3,4,5,6-tetrahydropyrimidin-1-ium-2-yl)benzimidazole chloride] | > 100 µM | > 100 µM | <30 %LBF | – | 85% | 81% |
| Cl.c1ccc2sc(-c3nc4ccc(C5=NCCCN5)cc4s3)cc2c1 [Compound 5e, 2-(Benzo[b]thiophen-2-yl)-6–(3,4,5,6-tetrahydropyrimidin-1-ium-2-yl)benzothiazole chloride] | 23 ± 6.24 µM | 5 ± 0.81 µM | <30 %LBF | – | 82% | 77% |
| Cl.FC(F)(F)c1ccc(-c2nc3ccc(C4=NCCCN4)cc3s2)cc1 [Compound 5c, 2–(4-Trifluoromethylphenyl)-6–(3,4,5,6-tetrahydropyrimidin-1-ium-2-yl)benzothiazole chloride] | 13 ± 0.78 µM | 4.31 µM | <30 %LBF | <30 %LBF | 83% | 94% |
| Cl.c1ccc2nc(-c3nc4ccc(C5=NCCCN5)cc4s3)ccc2c1 [Compound 5d, 2-(Quinoline-2-yl)-6–(3,4,5,6-tetrahydropyrimidin-1-ium-2-yl)benzothiazole chloride] | 16 ± 1.3 µM | 13 ± 1.65 µM | <30 %LBF | <30 %LBF | 81% | 85% |
| Cl.c1ccc2sc(-c3nc4ccc(C5=NCCCN5)cc4s3)nc2c1 [Compound 5g, 2-(Benzothiazole-2-yl)-6–(3,4,5,6-tetrahydropyrimidin-1-ium-2-yl)benzothiazole chloride] | 14 ± 3.07 µM | 7 ± 2.33 µM | <30 %LBF | <30 %LBF | 86% | 81% |

Other lines, results leading:

| IC50 (A549) | IC50 (NCI-H358) | Microsomes (1 µM) Predicted in vivo hep CL, Human [1] | Microsomes (1 µM) Predicted in vivo hep CL, Mouse [1] | remaining at 4 h, 5 µM (Stability in plasma; human plasma) | remaining at 4 h, 5 µM (Stability in plasma; mouse plasma) | SMILES |
| --- | --- | --- | --- | --- | --- | --- |
| > 100 µM | > 100 µM | <30 %LBF | 78 %LBF | 98% | 84% | c1ccc2c(-c3nc4ccc(C5=NCCCN5)cc4[nH]3)c[nH]c2c1 [Compound 6e, 2-(1H-Indol-3-yl)-5(6)–(3,4,5,6-tetrahydropyrimidin-1-ium-2-yl)benzimidazole chloride] |
| 12 ± 0.28 µM | 3 ± 1.41 µM | 56 %LBF | 41 %LBF | 73% | 79% | c1ccc(-c2nc3cc(C4=NCCCN4)ccc3[nH]2)cc1 [Compound 6a, 2-Phenyl-5(6)–(3,4,5,6-tetrahydropyrimidin-1-ium-2-yl)benzimidazole chloride] |
| > 100 µM | > 100 µM | <30 %LBF | <30 %LBF | 98% | 119% | N#Cc1ccc(-c2nc3cc(C4=NCCCN4)ccc3[nH]2)cc1 [Compound 6b, 2–(4-Cyanophenyl)-5(6)–(3,4,5,6-tetrahydropyrimidin-1-ium-2-yl)benzimidazole chloride] |
| > 100 µM | > 100 µM | <30 %LBF | 71 %LBF | 95% | 92% | c1ccc2sc(-c3nc4cc(C5=NCCCN5)ccc4[nH]3)cc2c1 [Compound 6d, 2-(Benzo[b]thiophen-2-yl)-5(6)–(3,4,5,6-tetrahydropyrimidin-1-ium-2-yl)benzimidazole chloride] |
| > 100 µM | > 100 µM | <30 %LBF | 77 %LBF | 106% | – | c1ccc2cc(-c3nc4cc(C5=NCCCN5)ccc4[nH]3)ccc2c1 [Compound 6f, 2-(Naphthalene-2-yl)-5(6)–(3,4,5,6-tetrahydropyrimidin-1-ium-2-yl)benzimidazole chloride] |
| > 100 µM | > 100 µM | <30 %LBF | <30 %LBF | 96% | 94% | FC(F)(F)c1ccc(-c2nc3cc(C4=NCCCN4)ccc3[nH]2)cc1 [Compound 6c, 2–(4-Trifluoromethylphenyl)-5(6)–(3,4,5,6-tetrahydropyrimidin-1-ium-2-yl)benzimidazole chloride] |
